Reference: ChEMBL document CHEMBL4831557, “Parthenolide Derivatives as PKM2 Activators Showing Potential in Colorectal Cancer” (J Med Chem, 2021)
Active and inactive are the calls of the source. The calls are words filed in the database; no cut-off is given here.

Tests used:
HT-29 [1] = test: Antitumor activity against human HT-29 cells xenografted in BALB/c mouse assessed as reduction in tumor weight at 15 to 30 mg/kg, ip administered once every two days for 2 weeks by vernier caliper method; assay type: functional, organism-based; details: dose 15-30 mg/kg
Pyruvate kinase PKM [2] = biological target: T1, Pyruvate kinase PKM (Homo sapiens, UniProt P14618); test: Inhibition of PKM2/STAT3 in human HT-29 cells assessed as reduction in cyclin-D1 protein expression at 0.45 to 1.8 uM incubated for 48 hrs by Western blot analysis; assay type: cell-based; details: dose 0.45-1.8 µM
T1 sequence (P14618 2-531 limits assumed): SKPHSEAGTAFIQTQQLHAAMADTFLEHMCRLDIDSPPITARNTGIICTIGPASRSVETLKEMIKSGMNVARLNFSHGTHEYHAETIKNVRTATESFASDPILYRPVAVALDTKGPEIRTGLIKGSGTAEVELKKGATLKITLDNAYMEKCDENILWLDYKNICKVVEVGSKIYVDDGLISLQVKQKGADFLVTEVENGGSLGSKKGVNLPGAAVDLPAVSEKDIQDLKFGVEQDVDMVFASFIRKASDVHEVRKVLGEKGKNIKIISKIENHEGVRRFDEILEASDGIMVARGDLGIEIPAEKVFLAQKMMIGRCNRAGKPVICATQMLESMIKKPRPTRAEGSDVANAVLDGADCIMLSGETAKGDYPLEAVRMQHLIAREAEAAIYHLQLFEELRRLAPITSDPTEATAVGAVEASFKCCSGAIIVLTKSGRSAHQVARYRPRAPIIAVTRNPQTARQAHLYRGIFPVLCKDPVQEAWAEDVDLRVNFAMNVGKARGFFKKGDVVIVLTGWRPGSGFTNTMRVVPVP

HT-29 [3] = test: Induction of apoptosis in human HT-29 cells assessed as increase in cleaved PARP expression at 0.45 to 1.8 uM after 48 hrs by Western blotting analysis; assay type: functional, cell-based; details: dose 0.45-1.8 µM
Pyruvate kinase PKM [4] = biological target: T1, Pyruvate kinase PKM; test: Inhibition of PKM2/STAT3 in human HT-29 cells assessed as reduction in bcl2 protein expression at 0.45 to 1.8 uM incubated for 48 hrs by Western blot analysis; assay type: cell-based; details: dose 0.45-1.8 µM
U2OS = test: Cytotoxicity against human U2OS cells assessed as reduction in cell viability incubated for 48 hrs by MTT assay; assay type: functional, cell-based
HT-29 [5] = test: Induction of apoptosis in PKM2 knock down human HT-29 cells at 0.45 to 1.8 uM; assay type: functional, cell-based; details: dose 0.45-1.8 µM
A549 = test: cells; details: Homo sapiens, A549, 48 h
[6] = Toxicity in BALB/c mouse xenografted with human HT-29 cells assessed as decrease in body weight at 30 mg/kg, ip administered once every 2 days for 2 weeks and monitered every 2 days; assay type: organism-based; details: in vivo, 336 h
HT-29 [7] = test: Antiproliferative activity against human HT-29 cells at 0.25 to 1 uM measured after 48 hrs by EdU staining based confocal microscopic analysis; assay type: functional, cell-based; details: dose 0.25-1 µM
[8] = Selectivity index, ratio of IC50 for human NCM460 cells to IC50 for human SW480 cells
HT-29 [9] = test: Antimigratory activity against human HT-29 cells; assay type: functional, cell-based
Pyruvate kinase PKM [10] = biological target: T1, Pyruvate kinase PKM; test: Inhibition of PKM2/STAT3 in human HT-29 cells assessed as decrease in phosphorylated STAT3 level at 0.45 to 1.8 uM after 48 hrs by Western blot analysis; assay type: cell-based; details: dose 0.45-1.8 µM

Which results are given for `C=C1C(=O)O[C@H]2[C@H]1CC/C(COC(=O)c1ccc3nccc(Br)c3c1)=C/CC[C@@]1(C)O[C@@H]21`?
Activity (HT-29 [1]): Active; inhibition (Pyruvate kinase PKM [2]): Active; Activity (HT-29 [3]): Active; inhibition (Pyruvate kinase PKM [4]): Active; IC50 (U2OS): 1790 nM; Activity (HT-29 [5]): inactive; IC50 (A549): 1670 nM; Activity [6]: Non-Toxic; Activity (HT-29 [7]): Active; Ratio IC50 [8]: 9.18; Activity (HT-29 [9]): Active; inhibition (Pyruvate kinase PKM [10]): Active
